Assays:
SW480 (G12V) = experiment: In vitro cell proliferation inhibition test (CellTiter-Glo), SW480; assay type: cell-based; details: Homo sapiens, SW480 colon cell line, KRAS (p.G12V), 72 h co-incubation
Method in brief: (§1)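 IC50 was derived by four-parameter fitting of normalized CellTiter-Glo signals. These were measured after 72 h co-incubation with compound at 10 concentrations, 3-fold serial, final maximum 10 μM. Plating was 1000-5000 cells/well, adjusted to growth rate, with overnight attachment at 37 °C, 5% CO2.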

AsPC-1 (G12D) = experiment: In vitro cell proliferation inhibition test (CellTiter-Glo), AsPC-1; assay type: cell-based; details: Homo sapiens, ASPC1, AsPC-1 pancreas cell line, KRAS (p.G12D), 72 h co-incubation
Method in brief: as §1

CCn1c(-c2cc(-c3cc4c(cn3)CN(C)C4)cnc2[C@H](C)OC)c2c3cc(ccc31)-c1csc(n1)C[C@H](NC(=O)[C@H]1C[C@@H]1C)C(=O)N1CCC[C@H](N1)C(=O)OCC(C)(C)C2 (atropisomer, axis not shown) [Compound 43, (1S,2S)-N-((6^3S,4S,Z)-1^1-ethyl-1^2-(2-((S)-1-methoxyethyl)-5-(2-methyl-2,3-dihydro-1H-pyrrolo[3,4-c]pyridin-6-yl)pyridin-3-yl)-10,10-dimethyl-5,7-dioxo-6^1,6^2,6^3,6^4,6^5,6^6-hexahydro-1^1H-8-oxa-2(4,2)-thiazola-1(5,3)-indola-6(1,3)-pyridazinacycloundecaphane-4-yl)-2-methylcyclopropane-1-carboxamide] was tested, and the IC50 (SW480 (G12V)) was 3.8 nM and the IC50 (AsPC-1 (G12D)) was 17 nM.
